Measurements from paper PMC5540152 (Cell reports, 2017).
Ends that are not written are not given here.

Tests used:
CaMKII [1] = target: T1, CaMKII (Homo sapiens, UniProt Q9UQM7); assay: Kinetics of CaMKII inhibition; type: biochemical
CaMKII [2] = target: T1, CaMKII; settings: stimulated CaMKII activity; ref Coultrap and Bayer, 2011; cited from earlier work

T1 sequence (Q9UQM7 whole entry): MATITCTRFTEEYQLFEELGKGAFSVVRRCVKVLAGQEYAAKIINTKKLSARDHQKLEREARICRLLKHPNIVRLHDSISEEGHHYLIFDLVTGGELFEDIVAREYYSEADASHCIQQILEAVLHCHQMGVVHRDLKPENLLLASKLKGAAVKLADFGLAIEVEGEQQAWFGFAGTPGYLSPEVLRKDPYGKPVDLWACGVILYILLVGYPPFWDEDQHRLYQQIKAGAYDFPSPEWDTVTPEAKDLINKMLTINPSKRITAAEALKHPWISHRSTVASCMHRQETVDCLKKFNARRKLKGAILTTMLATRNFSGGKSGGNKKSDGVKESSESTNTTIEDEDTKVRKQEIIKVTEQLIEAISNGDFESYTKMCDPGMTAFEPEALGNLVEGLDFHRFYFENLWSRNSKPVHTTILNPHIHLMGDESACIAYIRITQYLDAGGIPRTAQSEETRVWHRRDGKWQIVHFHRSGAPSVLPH

In the case of KRAPKLGQIGRQKAVDIED [CN19o], the “α-factor compared to the parent compounds” value (CaMKII [1]; vs CN19 and CN19a2v) is listed as “minimal effect on the α-factor”, the “Ki compared to the parent compounds” value (CaMKII [1]; vs parent compounds CN19 and CN19a2v) is listed as “dramatically improved” and the enhancement of potency (CaMKII [2]) is listed as greater than 250 fold. The enhancement of selectivity (CaMKII [2]) was greater than 250 fold.
